{"source": "patent US20020045591A1", "about": "“Methods and therapeutic compositions for treating cancer” (priority 1998, published 2002)", "key": {"[1]": {"system": "β-catenin", "assay": "β-catenin Western blot in Balb/C 3T3 cells treated with ubiquitin-proteasome inhibitors", "format": "cell-based, mouse", "settings": "treated 4 hours, FIG. 17A", "description": "(§1) Lactacystin A (dissolved in water at 0.4 mg/ml was used at a final concentration of 4 μg/ml) and MG-132 (used at 10 or 20 μM) were purchased from Calbiochem (La Jolla, Calif.).\nPolyacrylamide Gel Electrophoresis and Immunoblotting: Equal amounts of total cell protein were separated by SDS PAGE, electro-transferred to nitrocellulose and incubated with monoclonal antibodies. The antigens were visualized by the enhanced chemiluminescence (Amersham, Buckinghampshire, U.K). In some experiments, cells were fractionated into Triton X-100-soluble and -insoluble fractions. Briefly, cells cultured on 35 mm dishes were incubated in 0.5 ml buffer containing 50 mM MES, pH 6.8, 2.5 mM EGTA, 5 mM MgCl2 and 0.5% Triton-X-100, at room temperature for 3 minutes. The Triton X-100-soluble fraction was removed, and the insoluble fraction was scraped into 0.5 ml of the same buffer. Equal volumes of the two fractions were analyzed by SDS PAGE followed by immunoblotting with the various antibodies."}, "[2]": {"system": "β-catenin", "assay": "β-catenin Western blot in KTCTL60 cells treated with proteasome inhibitor", "format": "cell-based, human", "settings": "10 and 20 μM, FIG. 17B", "description": "(§2) Cell Culture and Transfections: Canine kidney epithelial cells MDCK, human fibrosarcoma HT1080, 293-T human embryonic kidney cells, Balb/C mouse 3T3 and human colon carcinoma SW480 cell lines were cultured in Dulbecco's modified Eagle's medium supplemented with 10% calf serum (Gibco, Grand Island, N.Y.) at 37° C. in the presence of 7% CO2. The human renal carcinoma cell line KTCTL60 was grown in RPMI medium and 10% calf serum. Cells were transiently transfected with the cDNA constructs described below, using Ca^2+-phosphate or lipofectamine (Gibco) and the expression of the transgene was assessed between 24 and 48 hours after transfection. In some experiments, the expression of the stably transfected NH2 terminus-deleted β-catenin (Δ57) was enhanced in HT1080 cells by overnight treatment with 2 mM sodium butyrate.\nas §1\n(§3) Polyacrylamide Gel Electrophoresis and Immunoblotting: Equal amounts of total cell protein were separated by SDS PAGE, electro-transferred to nitrocellulose and incubated with monoclonal antibodies. […] Equal volumes of the two fractions were analyzed by SDS PAGE followed by immunoblotting with the various antibodies."}, "[3]": {"system": "plakoglobin", "assay": "Plakoglobin Western blot in KTCTL60-PG cells treated with proteasome inhibitor", "format": "cell-based, human", "settings": "10 and 20 μM, FIG. 17B", "description": "as §2, §1, §3"}, "[4]": {"system": "HT1080 cells", "assay": "Butyrate induction in HT1080 cells stably expressing ΔN57 β-catenin", "format": "cell-based, human", "description": "as §2, with “In some experiments, the expression of the stably transfected NH2 terminus-deleted β-catenin (Δ57) was enhanced in HT1080 cells by overnight treatment with 2 mM sodium butyrate.” left out\nImmunofluorescence Microscopy: Cells cultured on glass coverslips were fixed with 3.7% paraformaldehyde in PBS and permeabilized with 0.5% Triton X-100. […] Images of the fluorescent cells were recorded with a cooled, scientific grade CCD camera (Photometrics, Tucson, Ariz.). Integrated fluorescent intensities in transfected and nontransfected cells were determined, after the background was subtracted.\nas §3"}, "[5]": {"biological_target": "T1, β-catenin (Cricetulus griseus, UniProt G3H996)", "T1 construct": "resulting from the stabilization of the endogenous β-catenin by the transfected cadherin derivatives; endogenous in cells; host or cells: CHO cells, stably or transiently transfected with cadherin derivatives only", "T1 sequence (G3H996 1-781)": "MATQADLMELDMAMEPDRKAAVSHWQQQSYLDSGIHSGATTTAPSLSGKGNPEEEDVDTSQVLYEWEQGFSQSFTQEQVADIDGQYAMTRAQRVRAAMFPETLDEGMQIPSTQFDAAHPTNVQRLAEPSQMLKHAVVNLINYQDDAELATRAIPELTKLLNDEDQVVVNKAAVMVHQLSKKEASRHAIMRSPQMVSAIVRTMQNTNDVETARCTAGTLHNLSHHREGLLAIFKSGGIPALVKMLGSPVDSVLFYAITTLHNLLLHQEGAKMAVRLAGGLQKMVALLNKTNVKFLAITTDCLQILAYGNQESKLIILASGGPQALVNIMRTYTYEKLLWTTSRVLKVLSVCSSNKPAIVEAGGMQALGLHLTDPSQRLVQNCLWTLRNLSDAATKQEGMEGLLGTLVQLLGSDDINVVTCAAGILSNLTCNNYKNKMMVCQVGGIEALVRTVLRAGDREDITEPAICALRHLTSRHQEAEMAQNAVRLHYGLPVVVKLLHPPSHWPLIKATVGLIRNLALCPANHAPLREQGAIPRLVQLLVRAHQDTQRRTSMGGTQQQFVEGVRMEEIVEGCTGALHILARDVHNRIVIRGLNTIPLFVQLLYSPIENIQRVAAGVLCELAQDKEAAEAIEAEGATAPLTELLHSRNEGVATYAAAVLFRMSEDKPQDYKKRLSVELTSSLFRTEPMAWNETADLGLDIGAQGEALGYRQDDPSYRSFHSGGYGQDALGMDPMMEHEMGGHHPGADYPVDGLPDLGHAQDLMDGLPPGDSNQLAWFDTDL", "assay": "β-catenin level in CHO cells by Western blot", "format": "cell-based", "settings": "CHO cells transiently transfected with GFP-cadherin constructs, FIG. 7B", "description": "(§4) Cell culture and transfections: CHO and SW480 human colon carcinoma cells were cultured in Dulbecco's modified Eagle's medium containing 10% fetal calf serum in an 8% CO2 incubator at 37° C. Transfections were performed using Lipofectamine (Gibco, BRL, USA) according to the manufacturer's instructions. Stably transfected CHO clones were generated by co-transfection with a plasmid encoding the puromycin resistance gene. Two days after transfection, cells were replated in the presence of 10 μg/ml puromycin (Sigma, Holon, Israel). Stable clones were isolated 2 weeks later and tested for the expression of the transgene by Western blot analysis.\nImmunoblotting and immunoprecipitation: The following antibodies were used: polyclonal pan-cadherin or monoclonal anti cadherin (CH-19) and polyclonal anti β-catenin antibodies were from Sigma (Holon, Israel). Monoclonal anti β-catenin, 5H10 (from M. Wheelock), anti IL2Rα (from UBI), anti flag (M2, from IBI), anti HA (clone 12CA5, from Boehringer Mannheim, Germany), anti GFP (polyclonal, from Clontech, Palo Alto, Calif.), anti LEF-1 (polyclonal, kindly provided by Dr. R. Grosschedl). Secondary antibodies for Western blotting were goat anti rabbit or anti mouse conjugated to HRP (Amersham, Buckinghampshire, UK), and for immunofluorescence analysis the secondary antibodies were FITC-goat anti mouse (Cappel, USA) or rhodamine-anti rabbit antibodies (from Jackson Immuno-Research, West Grove, Pa.). Cells were harvested in Laemmli's sample buffer and equal amounts of total cell protein from the different clones, or from transient transfections, were separated by SDS-PAGE, electrotransferred to nitrocellulose and incubated with the different antibodies. For immunoprecipitation, cells were harvested in IP buffer (20 mM Tris pH 8.0, 1% Triton X-100, 140 mM NaCl, 10% glycerol, 1 mM EGTA, 1.5 mM MgCl2, 1 mM DTT, 1 mM sodium vanadate, and 50 μg/ml PMSF). Equal amounts (500-700 μg) of cell protein were incubated with 1 μl of the relevant antibody for 2 hours at 4° C., followed by incubation with 20 μl of protein A+G/agarose beads (Santa Cruz Biotechnologies, Santa Cruz, Calif.) for an additional 2 hours at 4° C. The agarose beads were washed with 20 mM Tris pH 8.0, 150 mM NaCl, and 0.5% NP-40, and the immune complexes recovered by boiling in Laemmli's sample buffer and resolved by SDS-PAGE."}, "[6]": {"system": "β-catenin-mediated transactivation", "assay": "TOPFLASH luciferase transactivation in SW480 cells (Example 1)", "format": "cell-based, human", "settings": "SW480 cells, GFP-fused cadherin tail constructs, FIG. 7C", "description": "as §4\nTransactivation assays: CHO cells were transfected with TOPFLASH or FOPFLASH vectors (van de Wetering et al., 1997, ibid) and with pCDNA3 coding for β-galactosidase to normalize for transfection efficiency. The transfection mixture also contained either β-catenin, LEF-1 or cadherin derivatives in different combinations, as indicated. SW480 cells were transfected with TOPFLASH and cadherin derivatives. After 48 hours, cells were harvested and tested for luciferase and β-galactosidase activities as follows: Cells were washed 5 times with PBS, resuspended in PM-2 buffer (33 mM NaH2PO4, 66 mM Na2HPO4, 0.1 mM MnCl2, 2 mM MgSO4, 40 mM β-mercaptoethanol) and lysed by 5 cycles of freezing and thawing. Aliquots containing equal amounts of protein were incubated with O-Nitrophenyl-β-D-galactopyranoside (ONPG) at 37° C. until a yellow color appeared. The reactions were stopped with 1 M Na2CO3 and the absorbance at 420 nm was determined. Identical aliquots were tested for luciferase activity using luciferine buffer (100 mM Tris-O-Acetate pH 7.8, 10 mM Mg-O-Acetate, 1 mM EDTA, 74 μM luciferine (Boehringer Mannheim, Germany) and 2.22 mM ATP, pH 7.0). The luciferase reaction was monitored by a TD-20e luminometer (Turner, USA) and normalized for the β-galactosidase activity.\nDistribution of N-cadherin derivatives and the effect on β-catenin transactivation in SW480 cells: SW480 colon carcinoma cells express mutant APC, low levels of E-cadherin and relatively high levels of free β-catenin. These cells also display very significant β-catenin-mediated transcription after transfection with TOPFLASH (FIG. 6A, lane 1). To determine the effect of cadherin on this β-catenin-driven transactivation, each of the three N-cadherin derivatives was transfected together with TOPFLASH into SW480 cells and luciferase activity determined. […] The most efficient inhibitor of this transactivation was the cadherin tail construct (FIG. 6A, lane 4), which inhibited the reporter gene by more than 85%. Full-length N-cadherin and the IL2R/N-cadherin chimera decreased the activity of the reporter by about 70% and 50%, respectively."}}, "note": "Non-standard residues stand in square brackets, D forms with d. Residues, ends and D or L forms follow the SMILES beside them. No end group written: not given here. *: point of attachment. Nle = CCCC[C@H](N)C(=O)O; Cbz = O=C(OCc1ccccc1)*"}
{"compound": "CCCC[C@@H](C=O)NC(=O)[C@H](CC(C)C)NC(=O)[C@H](CC(C)C)NC(C)=O", "note": "[ALLN, N-Acetyl-Leu-Leu-Norleucinal] (Ac-Leu-Leu-[Nle]-aldehyde)", "values": [{"measurement": "effect on β-catenin (Western blot)", "setting": "[1]", "value": "appearance of higher molecular weight β-catenin forms"}]}
{"compound": "CC(=O)N[C@@H](CSC(=O)[C@]1([C@@H](O)C(C)C)NC(=O)[C@H](C)[C@@H]1O)C(=O)O", "note": "[Lactacystin]", "values": [{"measurement": "effect on β-catenin (Western blot)", "setting": "[1]", "value": "appearance of higher molecular weight β-catenin forms"}]}
{"compound": "CC(C)C[C@@H](C=O)NC(=O)[C@H](CC(C)C)NC(=O)[C@H](CC(C)C)NC(=O)OCc1ccccc1", "note": "[MG-132] (Cbz-Leu-Leu-Leu-aldehyde)", "values": [{"measurement": "effect on β-catenin content", "setting": "[2]", "value": "dramatic elevation in β-catenin content"}, {"measurement": "effect on β-catenin (Western blot)", "setting": "[1]", "value": "appearance of higher molecular weight β-catenin forms"}, {"measurement": "effect on plakoglobin level", "setting": "[3]", "value": "moderate increase in plakoglobin"}]}
{"compound": "CCCC(=O)[O-].[Na+]", "note": "[butyrate, sodium butyrate]", "values": [{"measurement": "β-catenin localization", "setting": "[4]; butyrate-treated, FIG. 14D", "value": "dramatic translocation of β-catenin into the nucleus"}, {"measurement": "increase in expression of the transgene (western blot)", "setting": "[4]; overnight 2 mM sodium butyrate, data not shown", "value": "about 2 fold"}]}
{"compound": "E30: E-cadherin tail fragment, amino acids 833-862, fused to GFP", "values": [{"measurement": "stabilization of β-catenin against degradation", "setting": "[5]", "value": "ineffective in stabilizing β-catenin against degradation"}, {"measurement": "inhibition of luciferase activity (LEF-1-driven transactivation)", "setting": "[6]", "value": "did not affect β-catenin-mediated transactivation"}]}
{"compound": "E72: C-terminal 72 amino acids of E-cadherin (813-884) fused to GFP", "values": [{"measurement": "stabilization of β-catenin against degradation", "setting": "[5]", "value": "could also stabilize β-catenin"}, {"measurement": "inhibition of luciferase activity (LEF-1-driven transactivation)", "setting": "[6]", "value": 60, "unit": "%"}]}
{"compound": "N30: N-cadherin tail fragment, amino acids 862-891, fused to GFP (LVFDYEGSGSTAGSLSSLNSSSSGGEQDYD; also: fused to GFP)", "values": [{"measurement": "stabilization of β-catenin against degradation", "setting": "[5]", "value": "ineffective in stabilizing β-catenin against degradation"}, {"measurement": "inhibition of luciferase activity (LEF-1-driven transactivation)", "setting": "[6]", "value": "did not affect β-catenin-mediated transactivation"}]}
{"compound": "N71: C-terminal 71 amino acids of N-cadherin (842-912) fused to GFP", "values": [{"measurement": "stabilization of β-catenin against degradation", "setting": "[5]", "value": "could also stabilize β-catenin"}, {"measurement": "inhibition of luciferase activity (LEF-1-driven transactivation)", "setting": "[6]", "value": 70, "unit": "%"}]}
